Source: ChEMBL document CHEMBL1128936, “Protein-ligand interactions. 6 nicotinic acetylcholine receptor agonist activity of isoquinoline alkaloids” (Bioorg Med Chem Lett, 1996)
Several values for one entry are separate records, joined by “and”; a condition that tells them apart may be missing. Equal values may be shown once.

Experiments:
[1] = target: T1, Acetylcholine receptor subunit delta (Torpedo californica) (UniProt P02718); assay: Compound was tested for its binding affinity against nicotinic acetylcholine receptor by fluorimetry assay; conditions: torpedo fuscomaculata
T1 sequence (whole entry): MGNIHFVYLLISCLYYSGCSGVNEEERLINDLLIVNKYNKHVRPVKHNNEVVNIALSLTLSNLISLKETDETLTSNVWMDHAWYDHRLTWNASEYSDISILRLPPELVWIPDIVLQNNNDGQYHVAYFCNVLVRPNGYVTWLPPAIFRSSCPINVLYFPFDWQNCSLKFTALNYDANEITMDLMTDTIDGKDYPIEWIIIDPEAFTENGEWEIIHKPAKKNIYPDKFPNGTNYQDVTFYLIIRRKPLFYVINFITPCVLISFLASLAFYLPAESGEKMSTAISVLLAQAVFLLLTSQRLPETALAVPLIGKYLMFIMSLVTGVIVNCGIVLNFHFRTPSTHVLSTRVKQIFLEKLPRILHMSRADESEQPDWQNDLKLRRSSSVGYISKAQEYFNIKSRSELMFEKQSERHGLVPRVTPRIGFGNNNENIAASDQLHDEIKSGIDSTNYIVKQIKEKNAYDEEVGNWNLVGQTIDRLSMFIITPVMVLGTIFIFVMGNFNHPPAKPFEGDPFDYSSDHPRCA

[2] = target: T1, Acetylcholine receptor subunit delta (Torpedo californica); assay: Compound was tested for its binding affinity against nicotinic acetylcholine receptor by spectrometry assay; conditions: torpedo fuscomaculata

SMILES | Bmax [1] | Kd1 [1] | Kd2 [1] | Bmax [2] | Kd1 [2] | Kd2 [2]
c1ccc2cnccc2c1 | 0.31 µM | 3.1 µM | 49 µM | 1.86 µM | 3.3 µM | 51.6 µM
COc1ccc(Cc2nccc3cc(OC)c(OC)cc23)cc1OC | 0.27 µM | 1.7 µM | – | 2.07 µM | 2.4 µM | 31 µM and 29 µM
COc1cc2c3cc1Oc1cc(ccc1O)C[C@@H]1c4c(cc(OC)c(O)c4Oc4ccc(cc4)C[C@@H]3N(C)CC2)CC[N+]1(C)C | – | 0.05 µM | 11.4 µM | – | 0.03 µM | 8 µM
CC(=O)OCC[N+](C)(C)C | – | 0.12 µM | 2.3 µM | – | 0.18 µM | 3 µM
COc1ccc2cc3[n+](cc2c1OC)CCc1cc2c(cc1-3)OCO2 | 0.31 µM | 0.77 µM | – | 2.14 µM | 0.84 µM | 27 µM and 34 µM
